The target in one assay is T1, M1 muscarinic receptor (Homo sapiens, UniProt P11229).
T1 construct: expressed in transfected cells; host or cells: CHO (M1-CHO)
T1 sequence (P11229 1-460): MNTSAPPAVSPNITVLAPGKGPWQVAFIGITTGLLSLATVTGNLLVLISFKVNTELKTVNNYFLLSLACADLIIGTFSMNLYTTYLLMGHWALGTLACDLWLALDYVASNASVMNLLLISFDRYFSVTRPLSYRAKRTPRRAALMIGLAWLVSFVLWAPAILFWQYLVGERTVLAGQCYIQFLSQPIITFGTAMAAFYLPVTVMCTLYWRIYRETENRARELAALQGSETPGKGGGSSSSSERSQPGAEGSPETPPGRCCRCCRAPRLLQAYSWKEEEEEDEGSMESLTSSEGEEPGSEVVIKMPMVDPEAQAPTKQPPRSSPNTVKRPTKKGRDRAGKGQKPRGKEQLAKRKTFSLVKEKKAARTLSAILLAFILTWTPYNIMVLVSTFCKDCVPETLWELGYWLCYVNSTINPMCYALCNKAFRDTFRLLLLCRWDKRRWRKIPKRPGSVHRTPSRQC
In words: Functional mobilization of intracellular calcium (FLIPR), M1-CHO cells. Format: cell-based. The settings on record: for Emax: 100% efficacy is the maximum response obtained using Carbachol as a control; for M1 Activity: M1-CHO cells, FLIPR calcium mobilization. The gist of the method: (§1)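 Calcium flux recorded 60 s (ex 488, em 540 nm) in dye-loaded M1- or M4-CHO cells in pH 7.4 buffer with 1 mM probenecid. Inhibition measured against carbachol EC80 after 15 min compound pre-incubation or co-addition; agonism measured by compound addition alone. Final DMSO 0.5%.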
In general terms: Calcium assays in cells follow changes in intracellular calcium, usually with a dye or a luminescent sensor.

A further assay concerns the target T2, M4 muscarinic receptor (Homo sapiens, UniProt P08173).
T2 construct: expressed in transfected cells; host or cells: CHO (M4-CHO)
T2 sequence (P08173 1-479): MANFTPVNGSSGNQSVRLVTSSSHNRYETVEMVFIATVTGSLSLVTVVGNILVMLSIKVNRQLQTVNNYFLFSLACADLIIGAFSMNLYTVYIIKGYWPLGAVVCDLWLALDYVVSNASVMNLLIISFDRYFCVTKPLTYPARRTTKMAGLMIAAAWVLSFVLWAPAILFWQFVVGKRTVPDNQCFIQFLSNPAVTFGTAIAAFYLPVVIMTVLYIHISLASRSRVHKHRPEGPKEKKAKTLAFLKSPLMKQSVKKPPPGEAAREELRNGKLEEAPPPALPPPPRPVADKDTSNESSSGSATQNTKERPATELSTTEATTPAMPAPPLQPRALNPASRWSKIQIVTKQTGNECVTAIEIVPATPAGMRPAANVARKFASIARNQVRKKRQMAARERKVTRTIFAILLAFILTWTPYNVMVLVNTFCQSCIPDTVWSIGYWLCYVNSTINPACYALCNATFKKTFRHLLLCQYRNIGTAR
As to the kind of experiment: Functional mobilization of intracellular calcium (FLIPR), M4-CHO cells. Format: cell-based. The settings on record: for Emax: 100% efficacy is the maximum response obtained using Carbachol as a control; for M4 Activity: M4-CHO cells, FLIPR calcium mobilization. The method, boiled down: as §1

Each structure is given as a SMILES string. Counter-ions that a name gives are not always drawn. Bounds are passed on as bounds.

With `CCCCC(=O)N1Cc2ccccc2C2(CCN(C3CCN(C(=O)OCC)CC3)CC2)C1` [compound 122], on M1 muscarinic receptor, the Emax (usually the size of the effect at its maximum, as opposed to the concentration needed) fell in the range of 25 to 100% and the “M1 Activity” value is given as “+++ (activity was measured to be less than 1.0 μM)”. On M4 muscarinic receptor, the Emax is 25 to 100% and the “M4 Activity” value is “+++ (activity was measured to be less than 1.0 μM)”.
Turning to `CCOC(=O)N1CCC(N2CCC3(CC2)CN(C2CCCCC2C)Cc2ccccc23)CC1` (centres unmarked) [compound 123], on M1 muscarinic receptor, the Emax lay within 25 to 100% and the “M1 Activity” value is “+++ (activity was measured to be less than 1.0 μM)”. In addition, on M4 muscarinic receptor, the Emax was in the range of 25 to 100% and the “M4 Activity” value is on record as “+++ (activity was measured to be less than 1.0 μM)”.
For `CCOC(=O)N1CCC(CN2CCC3(CC2)CN(C(=O)c2cccs2)Cc2ccccc23)CC1` [compound 124], at M1 muscarinic receptor, the maximal effect (Emax) was 25 to 100% and the “M1 Activity” value is reported as “+++ (activity was measured to be less than 1.0 μM)”. Besides, at M4 muscarinic receptor, the maximal effect (Emax) was in the range of 25 to 100% and the “M4 Activity” value is “+++ (activity was measured to be less than 1.0 μM)”.
With `CCCOC(=O)N1C2CCC1CC(N1CCC3(CC1)CN(S(=O)(=O)N(C)C)Cc1ccccc13)C2` (centres unmarked) [compound 125], on M1 muscarinic receptor, the Emax was in the range of 25 to 100% and the “M1 Activity” value is listed as “+++ (activity was measured to be less than 1.0 μM)”. For the same compound, on M4 muscarinic receptor, the Emax was in the range of 25 to 100% and the “M4 Activity” value is reported as “+++ (activity was measured to be less than 1.0 μM)”.
As for `CCOC(=O)N1C2CCC1CC(N1CCC3(CC1)CN(C(=O)CC(F)(F)F)Cc1ccccc13)C2` (centres unmarked) [compound 126], at M1 muscarinic receptor, the maximal response (Emax) is 25 to 100% and the “M1 Activity” value was “+++ (activity was measured to be less than 1.0 μM)”. At M4 muscarinic receptor, the Emax was 25 to 100% and the “M4 Activity” value is given as “+++ (activity was measured to be less than 1.0 μM)”.
As for `CCOC(=O)N1CCC(CN2CCC3(CC2)CN(C(=O)NC2CCCC2)Cc2ccccc23)CC1` [compound 127], on M1 muscarinic receptor, the maximal response (Emax) was in the range of 25 to 100% and the “M1 Activity” value is “+++ (activity was measured to be less than 1.0 μM)”. In addition, at M4 muscarinic receptor, the Emax lay within 25 to 100% and the “M4 Activity” value is recorded as “+++ (activity was measured to be less than 1.0 μM)”.
Turning to `CCOC(=O)N1CCC(CN2CCC3(CC2)CN(C(=O)OC)Cc2ccccc23)CC1` [compound 128], on M1 muscarinic receptor, the Emax lay in the range of 25 to 100% and the “M1 Activity” value is listed as “+++ (activity was measured to be less than 1.0 μM)”. Further, at M4 muscarinic receptor, the Emax is 25 to 100% and the “M4 Activity” value was “+++ (activity was measured to be less than 1.0 μM)”.
As to `CCCOC(=O)N1CCC(N2CCC3(CC2)CN(C(C)=O)Cc2ccccc23)CC1` [compound 129, Propyl 4-(2-acetyl-2,3-dihydro-1H-spiro[isoquinoline-4,4′-piperidine]-1′-yl)piperidine-1-carboxylate hydrochloride], at M1 muscarinic receptor, the Emax lay within 25 to 100% and the “M1 Activity” value is reported as “+++ (activity was measured to be less than 1.0 μM)”. At M4 muscarinic receptor, the Emax fell in the range of 25 to 100% and the “M4 Activity” value is recorded as “+++ (activity was measured to be less than 1.0 μM)”.
Consider `CC(C)(C)CCN1CCC2(CC1)c1ccccc1C(=O)N2Cc1ccccc1` [compound 130], for which, on M1 muscarinic receptor, the maximal effect (Emax) was 25 to 100% and the “M1 Activity” value is listed as “++ (activity was measured to be from 1.0 μM to 5.0 μM)”. In addition, on M4 muscarinic receptor, the maximal response (Emax) was < 25% and the “M4 Activity” value is “+ (activity was measured to be greater than 5.0 μM)”.
The like results for `CN(C)S(=O)(=O)N1Cc2ccccc2C2(CCN(C3CC4CCC(C3)N4C(=O)OC3CCC3)CC2)C1` (centres unmarked) [compound 131] were, in that order, 25 to 100%, “+++ (activity was measured to be less than 1.0 μM)”, 25 to 100% and “+++ (activity was measured to be less than 1.0 μM)”.
In the case of `CCOC(=O)N1C2CCC1CC(N1CCC3(CC1)CN(C(=O)Nc1ccc(F)cc1)Cc1ccccc13)C2` (centres unmarked) [compound 132], at M1 muscarinic receptor, the maximal effect (Emax) was in the range of 25 to 100% and the “M1 Activity” value was “+++ (activity was measured to be less than 1.0 μM)”. For the same compound, at M4 muscarinic receptor, the Emax fell in the range of 25 to 100% and the “M4 Activity” value is “+++ (activity was measured to be less than 1.0 μM)”.
On to `COC(=O)N1CCC(N2CCC3(CC2)CN(C(C)=O)Cc2ccccc23)CC1` [compound 133], for which, at M1 muscarinic receptor, the Emax lay in the range of 25 to 100% and the “M1 Activity” value is listed as “+++ (activity was measured to be less than 1.0 μM)”. In addition, on M4 muscarinic receptor, the maximal effect (Emax) is 25 to 100% and the “M4 Activity” value is recorded as “+++ (activity was measured to be less than 1.0 μM)”.
Take `O=C1NC2(CCN(CCC3CCSCC3)CC2)c2ccccc21` [compound 134]: on M1 muscarinic receptor, the Emax was < 25% and the “M1 Activity” value is “+ (activity was measured to be greater than 5.0 μM)”. For the same compound, at M4 muscarinic receptor, the Emax was < 25% and the “M4 Activity” value was “+ (activity was measured to be greater than 5.0 μM)”.
Consider `CCOC(=O)N1C2CCC1CC(N1CCC3(CC1)CN(c1cccc(Cl)c1)Cc1ccccc13)C2` (centres unmarked) [compound 136], for which, on M1 muscarinic receptor, the Emax was > 100% and the “M1 Activity” value is reported as “+++ (activity was measured to be less than 1.0 μM)”. Also, on M4 muscarinic receptor, the Emax fell in the range of 25 to 100% and the “M4 Activity” value is on record as “+++ (activity was measured to be less than 1.0 μM)”.
For the compound `CCOc1ccc(CN2CCC3(CC2)CN(C(C)=O)Cc2ccccc23)cc1` [compound 137], on M1 muscarinic receptor, the Emax is < 25% and the “M1 Activity” value is reported as “+ (activity was measured to be greater than 5.0 μM)”. For the same compound, on M4 muscarinic receptor, the Emax was < 25% and the “M4 Activity” value is “+ (activity was measured to be greater than 5.0 μM)”.
In the case of `COCCOC(=O)N1Cc2ccccc2C2(CCN(C3CC4CCC(C3)N4C(=O)O[C@@H]3CCOC3)CC2)C1` (some centres unmarked) [compound 138], at M1 muscarinic receptor, the maximum response (Emax) lay within 25 to 100% and the “M1 Activity” value is on record as “+++ (activity was measured to be less than 1.0 μM)”. Further, at M4 muscarinic receptor, the maximal response (Emax) was 25 to 100% and the “M4 Activity” value is recorded as “+++ (activity was measured to be less than 1.0 μM)”.
With `CC(=O)N1Cc2ccccc2C2(CCN(Cc3ccoc3)CC2)C1` [compound 139], on M1 muscarinic receptor, the Emax was < 25% and the “M1 Activity” value is on record as “+ (activity was measured to be greater than 5.0 μM)”. In addition, on M4 muscarinic receptor, the Emax is < 25% and the “M4 Activity” value is reported as “+ (activity was measured to be greater than 5.0 μM)”.
Turning to `COC(=O)N1C2CCC1CC(N1CCC3(CC1)CN(C(C)=O)Cc1ccccc13)C2` (centres unmarked) [compound 140], on M1 muscarinic receptor, the Emax was 25 to 100% and the “M1 Activity” value is “+++ (activity was measured to be less than 1.0 μM)”. On M4 muscarinic receptor, the Emax fell in the range of 25 to 100% and the “M4 Activity” value is “+++ (activity was measured to be less than 1.0 μM)”.
Regarding `CCOC(=O)N1C2CCC1CC(N1CCC3(CC1)CN(c1cccc(OC)c1)Cc1ccccc13)C2` (centres unmarked) [compound 141, ethyl 3-(2-(3-methoxyphenyl)-2,3-dihydro-1H-spiro[isoquinoline-4,4′-piperidine]-1′-yl)-8-azabicyclo[3.2.1]octane-8-carboxylate], on M1 muscarinic receptor, the maximal effect (Emax) lay within 25 to 100% and the “M1 Activity” value was “+++ (activity was measured to be less than 1.0 μM)”. Further, on M4 muscarinic receptor, the maximum response (Emax) lay within 25 to 100% and the “M4 Activity” value is recorded as “+++ (activity was measured to be less than 1.0 μM)”.
Take `CC(=O)N1Cc2ccccc2C2(CCN(Cc3sccc3C)CC2)C1` [compound 142]: at M1 muscarinic receptor, the maximum response (Emax) was < 25% and the “M1 Activity” value is “+ (activity was measured to be greater than 5.0 μM)”. Moreover, at M4 muscarinic receptor, the maximum response (Emax) is < 25% and the “M4 Activity” value is “+ (activity was measured to be greater than 5.0 μM)”.
With `CCOC(=O)N1CCC(CN2CCC3(CC2)CN(C(=O)c2snnc2C)Cc2ccccc23)CC1` [compound 143], on M1 muscarinic receptor, the maximal response (Emax) lay in the range of 25 to 100% and the “M1 Activity” value is recorded as “+++ (activity was measured to be less than 1.0 μM)”. Also, on M4 muscarinic receptor, the maximal effect (Emax) lay within 25 to 100% and the “M4 Activity” value is “+++ (activity was measured to be less than 1.0 μM)”.
Consider `CC(=O)c1ccc(CN2CCC3(CC2)CN(C(C)=O)Cc2ccccc23)cc1` [compound 144], for which, at M1 muscarinic receptor, the Emax fell in the range of 25 to 100% and the “M1 Activity” value is given as “+ (activity was measured to be greater than 5.0 μM)”. For the same compound, on M4 muscarinic receptor, the Emax was < 25% and the “M4 Activity” value is listed as “+ (activity was measured to be greater than 5.0 μM)”.
Consider `CCOC(=O)N1CCC(CN2CCC3(CC2)OC(=O)c2ccc(C)cc23)CC1` [compound 145], for which, at M1 muscarinic receptor, the Emax lay in the range of 25 to 100% and the “M1 Activity” value is “+++ (activity was measured to be less than 1.0 μM)”. Besides, at M4 muscarinic receptor, the Emax fell in the range of 25 to 100% and the “M4 Activity” value is listed as “+++ (activity was measured to be less than 1.0 μM)”.

These data come from patent publication US7863449B2, “Modulators of muscarinic receptors” (Vertex Pharmaceuticals Incorporated, priority 2004, dated 2011).
